Assays:
[1] = test system: myeloid leukaemia cell line (NFS-60); assay: MTT anticancer activity, NFS-60; assay type: cell-based; settings: for IC50: NFS-60, 72 h, MTT, mean ± SEM; for activity against NFS-60 compared to the reference: fold versus doxorubicin IC50
Procedure, shortened: (§1)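 Cells seeded at 5x10^3/well (Caco-2 in DMEM, others in RPMI-1640, 10% FBS) and exposed to serial compound concentrations for 72 h at 37 °C, 5% CO2, starting 24 h after seeding. MTT (3 h, 37 °C) read at 570 nm after DMSO solubilisation; IC50 calculated from viability.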

NFS-60 = assay: Flow cytometric annexin V/PI analysis of apoptosis, NFS-60; assay type: cell-based, human; settings: IC50 of compound, 72 h, mean ± SEM
Experimental: (§2) The apoptosis-dependent […] was determined by quantification of annexin-stained apoptotic cells using the FITC signal detector (FL1) against the phycoerythrin emission signal detector (FL2) (Supplementary Page S55). […]
(§3) MTT method was used for assaying cell viability 25. Twenty microliters of 5 mg/ml MTT (Sigma, USA) was added to each well and the plate was incubated at […]
(§4) 37 °C for 3 h. […]
(§5) Graphpad Instat software.
(§6) Determination of the anticancer activity
(§7) Anticancer effect of the above-mentioned compounds was evaluated using four human cancer cell lines. Colon cancer cells (Caco-2) were maintained in DMEM (Lonza, USA) containing 10% FBS while myeloid leukemia cell line (NFS-60), liver cancer cell line (HepG-2) and prostate cancer cell line (PC-3) were cultured in RPMI-1640 (Lonza, USA) supplemented with 10% FBS. All cancer cells (5x10^3 cells/well) were seeded in sterile 96-well plates. After 24h, serial concentrations of the tested compounds and Dox were incubated with four cancer cell lines for 72 h at 37 °C in 5% CO2 incubator. MTT method was done as described above. The Graphpad Instat software was used for calculating the half maximal inhibitory concentration (IC50) values. […]
(§8) Flow cytometric analysis of apoptosis
(§9) Caco-2, PC-3 and NFS-60 cell lines. After trypsinization, the untreated and treated cells were incubated with annexin V/PI for 15 min. Then cells were fixed and incubated with streptavidin-fluorescein (5 µg/mL) for 15 min. The apoptosis-dependent anticancer effect was determined by quantification of annexin-stained apoptotic cells using the FITC signal detector (FL1) against the phycoerythrin emission signal detector (FL2). […]

PIM-2 kinase = PIM-2 kinase (Homo sapiens, UniProt Q9P1W9); assay: PIM-2 kinase inhibitory activity (Promega kinase assay kit)
PIM-1 kinase [2] = target: T1, PIM-1 kinase (Homo sapiens, UniProt P11309); assay: Mechanism of PIM-1 kinase inhibition, Lineweaver–Burk double-reciprocal plot; assay type: biochemical; parameters: purchased Promega Corporation #V4032; settings: for Vmax compared with control: Y-intercept
HepG-2 = assay: Flow cytometric annexin V/PI analysis of apoptosis, HepG-2; assay type: cell-based, human; settings: IC50 of compound, 72 h, mean ± SEM
PC-3 = assay: Flow cytometric annexin V/PI analysis of apoptosis, PC-3; assay type: cell-based, human; settings: IC50 of compound, 72 h, mean ± SEM
Experimental: as §2, §3, §4, §5, §6, §7, §8, §9

[3] = test system: prostate cancer cell line (PC-3); assay: MTT anticancer activity, PC-3; assay type: cell-based, human; settings: Homo sapiens, 72 h, PC-3, 72 h, mean ± SEM
Procedure, shortened: as §1

PIM-1 kinase [4] = target: T1, PIM-1 kinase; assay: PIM-1 kinase inhibitory activity (Promega kinase assay kit)
[5] = test system: caspase 3/7 in HepG-2 cells; assay: Caspase 3/7 activation assay (Apo-ONE kit); assay type: cell-based, human; settings: caspase 3/7, relative to untreated HepG2 cells; mean ± SEM
Description: The percentage of caspase 3/7 activation was quantified using the Apo-ONE ® caspase 3/7 kit following the manufacturer’s instructions[27] (Supplementary Page S56).
It’s a fluorescence assay that measures caspase-3 and −7 activities. Caspase 3/7 activators are well known as apoptotic inducers.
Caspase 3/7 activation assay
The Apo-ONE ® caspase 3/7 kit following the manufacturer’s instructions was used for quantifying the percentage of caspase 3/7 activation. The fluorescence substrate present in the kit was cut by caspases to produce fluorescence signal. This signal was measured by the fluorescence omega microplate reader (BMG LabTech, Germany) at 490 nm excitation and 520 nm emission.
Data were expressed as mean ± standard error of the mean (SEM). Statistical significance was estimated by the multiple comparisons Tukey post-hoc analysis of variance (ANOVA) using the SPSS16 program. When p < 0.05, the differences were marked as statistically significant.
PIM-1 and PIM-2 kinase inhibitory activity
PIM-1 and PIM-2 kinase utilizing PIM-1 and PIM-2 Kinase Assay Kit – Promega Corporation catalog #V4032, following the manufacturer’s instructions 26 […]
Information Classification: General

T1 sequence (P11309 whole entry): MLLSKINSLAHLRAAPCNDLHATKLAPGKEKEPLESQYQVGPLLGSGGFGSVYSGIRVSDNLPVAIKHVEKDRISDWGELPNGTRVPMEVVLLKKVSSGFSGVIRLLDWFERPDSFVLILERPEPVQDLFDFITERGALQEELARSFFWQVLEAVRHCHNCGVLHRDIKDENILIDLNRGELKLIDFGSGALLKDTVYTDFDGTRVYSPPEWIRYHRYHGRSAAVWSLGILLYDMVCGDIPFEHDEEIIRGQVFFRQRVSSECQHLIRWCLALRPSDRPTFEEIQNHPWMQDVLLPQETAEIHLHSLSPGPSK
Chain of PIM-2 kinase (Q9P1W9 whole entry): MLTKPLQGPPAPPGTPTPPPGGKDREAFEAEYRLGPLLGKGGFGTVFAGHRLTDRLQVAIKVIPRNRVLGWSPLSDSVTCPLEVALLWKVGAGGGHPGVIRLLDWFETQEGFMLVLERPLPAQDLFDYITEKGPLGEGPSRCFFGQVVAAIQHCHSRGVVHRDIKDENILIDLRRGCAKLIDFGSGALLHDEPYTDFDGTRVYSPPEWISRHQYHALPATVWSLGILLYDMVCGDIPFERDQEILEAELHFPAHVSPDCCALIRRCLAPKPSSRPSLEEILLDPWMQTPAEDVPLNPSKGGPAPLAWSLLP

| Compound | IC50 [1] [nM] | total percentage of the apoptotic cell population, NFS-60 (NFS-60) [%] | IC50 (PIM-2 kinase) [nM] | mechanism of PIM-1 kinase inhibition (PIM-1 kinase [2]) | Vmax compared with control (PIM-1 kinase [2]) | total percentage of the apoptotic cell population, HepG-2 (HepG-2) [%] | total percentage of the apoptotic cell population, PC-3 (PC-3) [%] | IC50 [3] [nM] | activity against NFS-60 compared to the reference [1] | IC50 (PIM-1 kinase [4]) [nM] | Fold increase in caspase activity [5] [fold] |
| --- | --- | --- | --- | --- | --- | --- | --- | --- | --- | --- | --- |
| N#Cc1c(-c2cc3cc(Cl)ccc3nc2N2CCOCC2)cc(-c2cccc(O)c2)[nH]c1=O [5b, 4-(6-Chloro-2-morpholin-4-yl-quinolin-3-yl)-6-(3-hydroxyphenyl)-2-oxo-1,2-dihydropyridine-3-carbonitrile] | 9.32 ± 4 | 54.2 ± 0.47 | 670 | competitive inhibitors | the same Vmax in comparison with control | 58.9 ± 0.88 | 50.7 ± 0.58 | 26.1 ± 4 |  |  |  |
| COc1ccc2nc(N3CCOCC3)c(-c3cc(-c4cccc(O)c4)[nH]c(=O)c3C#N)cc2c1 [5c, 6-(3-Hydroxyphenyl)-4-(6-methoxy-2-morpholin-4-yl-quinolin-3-yl)-2-oxo-1,2-dihydropyridine-3-carbonitrile] | 18.1 ± 1 | 51.53 ± 0.09 | 1660 | competitive inhibitors | the same Vmax in comparison with control | 54.14 ± 0.42 | 47.26 ± 0.92 | 27.2 ± 3 |  |  |  |
| N#Cc1c(-c2cc3ccccc3[nH]c2=O)cc(-c2cccc(O)c2)[nH]c1=O [13a, 6-(3-Hydroxyphenyl)-2-oxo-4-(2-oxo-1,2-dihydroquinolin-3-yl)-1,2-dihydropyridine-3-carbonitrile] | 9 | 59.23 ± 0.04 |  | both competitive and non-competitive inhibitor | reduced in Vmax value | 70.59 ± 1.07 | 59.71 ± 0.82 | 20 ± 3 | three-fold | 1270 |  |
| COc1ccc2[nH]c(=O)c(-c3cc(-c4cccc(O)c4)[nH]c(=O)c3C#N)cc2c1 [13c, 6-(3-Hydroxyphenyl)-4-(6-methoxy-2-oxo-1,2-dihydroquinolin-3-yl)-2-oxo-1,2-dihydropyridine-3-carbonitrile] | 8.8 ± 0.1 | 58.83 ± 0.36 |  |  |  | 66.83 ± 1.32 | 57.91 ± 0.34 | 22.5 ± 2 | three-fold high | 7780 |  |
| N#Cc1c(-c2cc3ccccc3[nH]c2=O)cc(-c2cccc(O)c2)nc1S [14a, 6-(3-Hydroxyphenyl)-2-mercapto-4-(2-oxo-1,2-dihydroquinolin-3-yl)pyridine-3-carbonitrile] | 23.2 | 42.005 ± 0.32 |  | competitive inhibitors | the same Vmax in comparison with control | 42.155 ± 0.16 | 56.545 ± 0.98 | 16.8 ± 0.1 |  | 385 | 1.86 ± 0.11 |
